Test results as given in patent US7504397B2, “mTOR inhibitor compounds” (Kudos Pharmaceuticals Ltd., priority 2005, dated 2009).
pIC50: −log10 of the molar value.

Biological target: mTOR protein (Homo sapiens, UniProt P42345)
Experiment: mTOR enzyme activity assay (PHAS-1 substrate)
Format: biochemical
Details: recombinant PHAS-1 as substrate
Excerpt: For mTOR enzyme activity assays, mTOR protein was isolated from HeLa cell cytoplasmic extract by immunoprecipitation, and activity determined essentially as described previously using recombinant PHAS-1 as a substrate (ref. 21).

Row | SMILES | pIC50
1 | Oc1c(F)cc(-c2csc(-c3ccnc(N4CCOCC4)n3)n2)cc1F [Compound 59a] | > 5.82
2 | COc1cc(-c2csc(-c3ccnc(N4CCOCC4)n3)c2)cc(OC)c1O [Compound 69a] | > 5.82
3 | COc1cc(C=NN(C)c2nc(N3CCOCC3)c3cccnc3n2)cc(OC)c1O [Compound 75b] | > 5.82
4 | COc1cc(C=NNc2cc(N3CCOCC3)nc(N3CCCCC3)n2)cc(OC)c1O [Compound 12b] | > 5.82
5 | COc1cc(-c2csc(-c3ccnc(N4CCCC(OC)C4)n3)n2)cc(OC)c1O (centres unmarked) [Compound 59j] | > 5.82
6 | COc1cc(-c2cncn2-c2ccnc(N3CCOCC3)n2)cc(OC)c1O [Compound 50, 2,6-Dimethoxy-4-[3-(2-morpholin-4-yl-pyrimidin-4-yl)-3H-imidazol-4-yl]-phenol] | > 5.82
7 | O=C(NNc1nc(N2CCOCC2)nc(N2CCOCC2)n1)c1cc(O)c(O)c(O)c1 [Compound 47a] | > 5.82
8 | COc1cc(-c2csc(-c3ccnc(N4CCOC[C@@H]4C)n3)n2)cc(OC)c1O [Compound 59i] | > 5.82
9 | COc1cc2ncnc(NN=Cc3ccc(O)c(O)c3)c2cc1OC [Compound 41a] | > 5.82
10 | COc1cc(-c2csc(-c3ccnc(N4CCOCC4)n3)n2)cc(OC)c1O [Compound 27, 2,6-Dimethoxy-4-[2-(2-morpholin-4-yl-pyrimidin-4-yl)-thiazol-4-yl]-phenol] | > 5.82
11 | CN(N=Cc1cc(O)c(O)c(O)c1)c1nc(N2CCOCC2)c2cccnc2n1 [Compound 75a] | > 5.82
